Source: PMC7153038, “Pharmacologic inhibition of RGD‐binding integrins ameliorates fibrosis and improves function following kidney injury” (Physiological Reports, 2020)
Where two headings read alike, the source gives them in different places.

Assays:
[1] = test system: non‐RGD‐binding integrins; parameters: method as in Henderson et al., 2013; conditions: ref Henderson et al., 2013; cited from earlier work
integrin αvβ1 = target: T1, integrin αvβ1 (Homo sapiens, UniProt P05556+P06756); assay: integrin αvβ1-mediated attachment of HEK-293 cells to TGFβ-1 latency-associated peptide; type: cell-based; conditions: mean and SD, at least 3 independent assays, LAP ligand
T1 construct: HEK‐293 cells, which naturally express this integrin; endogenous in cells; host or cells: HEK-293
T1 sequence (P06756 31-889 limits assumed): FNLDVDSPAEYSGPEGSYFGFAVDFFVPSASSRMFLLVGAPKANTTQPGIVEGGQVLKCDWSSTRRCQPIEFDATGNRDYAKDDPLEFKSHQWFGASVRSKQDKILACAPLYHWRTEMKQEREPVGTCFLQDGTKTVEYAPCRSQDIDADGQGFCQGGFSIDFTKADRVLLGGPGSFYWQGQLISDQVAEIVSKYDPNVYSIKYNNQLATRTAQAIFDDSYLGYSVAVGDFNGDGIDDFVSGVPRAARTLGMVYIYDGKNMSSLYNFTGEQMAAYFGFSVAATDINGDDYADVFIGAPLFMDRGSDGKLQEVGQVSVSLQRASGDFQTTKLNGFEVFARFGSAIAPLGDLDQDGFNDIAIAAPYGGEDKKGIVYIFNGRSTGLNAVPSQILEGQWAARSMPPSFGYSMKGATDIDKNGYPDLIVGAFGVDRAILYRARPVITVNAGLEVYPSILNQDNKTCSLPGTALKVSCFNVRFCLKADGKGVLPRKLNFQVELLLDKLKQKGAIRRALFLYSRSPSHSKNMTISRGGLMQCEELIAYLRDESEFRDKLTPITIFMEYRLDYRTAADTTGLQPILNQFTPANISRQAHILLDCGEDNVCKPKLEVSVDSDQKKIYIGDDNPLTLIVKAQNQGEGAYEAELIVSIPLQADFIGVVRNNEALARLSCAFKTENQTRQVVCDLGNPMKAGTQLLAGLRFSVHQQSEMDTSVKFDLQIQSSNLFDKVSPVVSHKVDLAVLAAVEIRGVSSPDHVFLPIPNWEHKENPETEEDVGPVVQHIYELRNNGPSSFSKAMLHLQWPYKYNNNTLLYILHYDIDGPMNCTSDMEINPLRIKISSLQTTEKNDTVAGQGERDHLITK
T1 sequence (P06756 891-1048 partner limits assumed): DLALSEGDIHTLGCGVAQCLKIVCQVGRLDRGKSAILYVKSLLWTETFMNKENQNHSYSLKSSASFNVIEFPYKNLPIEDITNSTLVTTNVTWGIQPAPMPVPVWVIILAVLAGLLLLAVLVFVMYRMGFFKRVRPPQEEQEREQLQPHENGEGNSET
T1 sequence (P05556 21-798): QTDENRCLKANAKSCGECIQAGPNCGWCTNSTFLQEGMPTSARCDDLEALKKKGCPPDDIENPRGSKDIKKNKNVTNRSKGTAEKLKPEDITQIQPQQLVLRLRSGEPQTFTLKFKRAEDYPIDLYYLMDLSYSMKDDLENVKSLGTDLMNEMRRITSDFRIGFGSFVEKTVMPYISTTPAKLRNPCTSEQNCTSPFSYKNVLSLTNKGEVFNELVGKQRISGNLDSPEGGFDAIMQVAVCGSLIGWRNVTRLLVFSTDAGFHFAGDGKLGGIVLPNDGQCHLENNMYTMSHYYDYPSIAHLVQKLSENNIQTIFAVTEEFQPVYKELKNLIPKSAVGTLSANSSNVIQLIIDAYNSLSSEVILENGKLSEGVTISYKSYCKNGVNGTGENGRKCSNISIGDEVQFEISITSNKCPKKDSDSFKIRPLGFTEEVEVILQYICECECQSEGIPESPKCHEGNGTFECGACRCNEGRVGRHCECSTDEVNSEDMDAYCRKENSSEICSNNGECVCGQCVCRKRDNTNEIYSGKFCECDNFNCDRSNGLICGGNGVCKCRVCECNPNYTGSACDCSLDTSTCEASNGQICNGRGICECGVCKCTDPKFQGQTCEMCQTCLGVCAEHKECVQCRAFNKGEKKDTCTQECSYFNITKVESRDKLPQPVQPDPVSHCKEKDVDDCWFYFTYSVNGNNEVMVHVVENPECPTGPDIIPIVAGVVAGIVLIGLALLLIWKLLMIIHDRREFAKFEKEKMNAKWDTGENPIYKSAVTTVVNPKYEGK
Description: (§1) The RGD peptidomimetic CWHM‐12 was synthesized as described in detail previously (Henderson et al., 2013). A close structural analog of this compound with improved oral bioavailability, CWHM‐680, was also synthesized at Saint Louis University. Potency for the compounds in blocking cell attachment mediated by integrins αvβ3, αvβ5, and αvβ6 was measured as previously described (Henderson et al., 2013). Potency for blocking cell attachment mediated by integrins αvβ1, αvβ8, and α8β1 was measured using modifications of this method which are briefly summarized as follows: To assess CWHM‐12 and CWHM‐680 effects on cellular αvβ1 function, we varied its concentration in an assay measuring binding of HEK‐293 cells, which naturally express this integrin (Nagarajan et al., 2007), to the surface of 96‐well plates coated with purified recombinant human TGFβ‐1 latency‐associated peptide (R&D Systems). To assess the effect on cellular αvβ8 function, we performed the assay with the same LAP ligand but with HEK‐293 cells which had been stably transfected to overexpress this integrin. To assess the effect on cellular α8β1 function, we performed the assay using HEK‐293 cells, which had been stably transfected to overexpress this integrin and used purified recombinant mouse nephronectin as the immobilized ligand (R&D Systems). […]

integrin αvβ6 = integrin αvβ6 (Homo sapiens, UniProt P06756+P18564); assay: integrin αvβ6-mediated cell attachment to ligand; type: cell-based; conditions: mean and SD, at least 3 independent assays, read-out: IC50, inhibition of αvβ6-mediated cell attachment
Chain of integrin αvβ6 (P06756 31-889 limits assumed): as the sequence (P06756 31-889 limits assumed) above
Chain of integrin αvβ6 (P06756 891-1048 partner limits assumed): as the sequence (P06756 891-1048 partner limits assumed) above
Chain of integrin αvβ6 (P18564 22-788): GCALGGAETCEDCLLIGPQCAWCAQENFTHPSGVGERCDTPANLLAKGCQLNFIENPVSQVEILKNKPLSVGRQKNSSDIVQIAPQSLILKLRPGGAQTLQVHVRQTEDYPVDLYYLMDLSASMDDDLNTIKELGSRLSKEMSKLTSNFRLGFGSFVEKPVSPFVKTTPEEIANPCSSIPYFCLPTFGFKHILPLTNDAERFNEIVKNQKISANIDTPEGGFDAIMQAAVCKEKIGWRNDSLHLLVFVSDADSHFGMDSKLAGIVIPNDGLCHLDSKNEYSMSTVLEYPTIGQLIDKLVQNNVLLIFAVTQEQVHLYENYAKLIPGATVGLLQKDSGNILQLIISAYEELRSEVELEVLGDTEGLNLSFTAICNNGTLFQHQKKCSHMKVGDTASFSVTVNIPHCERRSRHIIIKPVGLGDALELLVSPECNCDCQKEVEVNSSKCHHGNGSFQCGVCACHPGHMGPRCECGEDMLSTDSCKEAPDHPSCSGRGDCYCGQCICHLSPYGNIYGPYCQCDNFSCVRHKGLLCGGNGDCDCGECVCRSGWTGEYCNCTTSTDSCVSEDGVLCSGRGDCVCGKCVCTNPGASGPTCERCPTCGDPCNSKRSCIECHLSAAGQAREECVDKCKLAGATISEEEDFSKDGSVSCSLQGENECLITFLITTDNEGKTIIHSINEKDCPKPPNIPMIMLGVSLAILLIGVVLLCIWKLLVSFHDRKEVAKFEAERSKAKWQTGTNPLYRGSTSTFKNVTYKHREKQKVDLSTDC
Description: as §1

[2] = test system: aristolochic acid-induced kidney fibrosis in ICR mice; assay: aristolochic acid kidney injury model, kidney histology and immunofluorescence; type: in vivo, mouse; conditions: AA-injured, 100 mg/kg/day s.c. minipump
Description: (§2) Alzet osmotic minipumps (Cupertino, CA) were implanted subcutaneously in 8‐ to 10‐week‐old wild‐type male ICR outbred mice (Envigo) one day prior to induction of kidney injury to deliver vehicle (DMSO/H2O 1:1) or CWHM‐12 at a dose of 100 mg/kg per day. A single 5 mg/kg dose of aristolochic acid I sodium salt (Sigma‐Aldrich, A9451) in PBS was administered intraperitoneally to induce kidney injury, and mice were monitored daily for 27 days thereafter. Control (uninjured) mice were injected with an equal volume of PBS. Blood was obtained by maxillary vein puncture on days 0, 5 (peak injury), and 28 (study endpoint). For testing CWHM‐680, oral gavage (100 mg/kg per day) was started one day prior to injection of aristolochic acid I sodium salt and continued once daily until the study endpoint. Blood was obtained at days 0, 7, and 23 (study endpoint). […] Serum creatinine was measured by liquid chromatography–mass spectrometry (LC–MS/MS) at the University of Alabama O’Brien Center Bioanalytical Core. CWHM‐12 and CWHM‐680 concentrations were measured in plasma samples by liquid chromatography–tandem mass spectrometry (LC/MS/MS) using compound spiked into control plasma as a standard. All experiments were performed under protocols approved by the Institutional Animal Care and Use Committee at St. Louis University.
Harvested kidneys were bisected and harvested for RNA and protein, and fixed in 4% PFA for antibody staining and histological staining with Sirius red or Masson's trichrome. Paraffin sections (4 µm) were stained with Sirius red or Masson trichrome and imaged with polarized light and bright‐field illumination. For immunofluorescence, 7‐μm frozen sections were washed with ice‐cold 100% methanol, boiled in 10 mM citric acid (pH 6) for 20 min, and incubated with primary antibodies against αSMA (Millipore), PDGFR‐β (gift from B. Stallcup), or with biotin‐LTL (Vector Laboratories). Reactivity was detected using fluorescently labeled secondary antibodies. Sections were counterstained with DAPI (Sigma‐Aldrich), mounted in Mowiol 4–88 (Poly Sciences), and digital images acquired using a Leica DM5000B epifluorescence microscope and Leica DFC365FX camera. To quantify percent area stained for Sirius red, PDGFR‐β, and α‐SMA, we analyzed images from each of at least 4 biological replicates by batch processing using a macro created in Image J. Images were converted to 8‐bit grayscale, the threshold adjusted, and percent area measured. To quantify intact proximal tubules with brush borders, LTL‐positive tubules were counted by an observer blinded to the experimental conditions using Image J.

integrin αvβ3 = integrin αvβ3 (Homo sapiens, UniProt P05106+P06756); assay: integrin αvβ3-mediated cell attachment to ligand; type: cell-based; conditions: mean and SD, at least 3 independent assays, read-out: IC50, inhibition of αvβ3-mediated cell attachment
Chain of integrin αvβ3 (P06756 31-889 limits assumed): as the sequence (P06756 31-889 limits assumed) above
Chain of integrin αvβ3 (P06756 891-1048 partner limits assumed): as the sequence (P06756 891-1048 partner limits assumed) above
Chain of integrin αvβ3 (P05106 27-788): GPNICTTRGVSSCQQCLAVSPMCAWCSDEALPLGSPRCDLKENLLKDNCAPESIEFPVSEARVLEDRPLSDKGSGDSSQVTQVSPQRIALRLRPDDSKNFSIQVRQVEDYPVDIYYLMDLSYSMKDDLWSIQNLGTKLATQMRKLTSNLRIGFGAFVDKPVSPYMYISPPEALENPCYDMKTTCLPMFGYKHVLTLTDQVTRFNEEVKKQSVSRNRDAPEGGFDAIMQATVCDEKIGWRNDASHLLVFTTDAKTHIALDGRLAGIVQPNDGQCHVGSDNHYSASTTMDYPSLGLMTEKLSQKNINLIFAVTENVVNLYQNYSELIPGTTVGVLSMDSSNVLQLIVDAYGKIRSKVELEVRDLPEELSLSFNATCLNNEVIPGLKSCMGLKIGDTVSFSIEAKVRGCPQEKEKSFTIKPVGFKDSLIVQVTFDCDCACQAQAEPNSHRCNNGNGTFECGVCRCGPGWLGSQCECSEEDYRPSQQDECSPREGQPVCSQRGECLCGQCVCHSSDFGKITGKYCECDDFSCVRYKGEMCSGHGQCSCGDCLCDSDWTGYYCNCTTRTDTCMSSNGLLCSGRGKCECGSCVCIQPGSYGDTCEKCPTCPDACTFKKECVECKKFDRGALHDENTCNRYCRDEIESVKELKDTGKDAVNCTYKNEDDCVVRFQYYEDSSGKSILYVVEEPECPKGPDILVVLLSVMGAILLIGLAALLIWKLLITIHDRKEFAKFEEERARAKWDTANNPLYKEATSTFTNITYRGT
Description: as §1

[3] = test system: aristolochic acid-induced kidney injury in ICR mice; assay: aristolochic acid kidney injury model, serum creatinine; type: in vivo, mouse; conditions: AA-injured mice, 100 mg/kg/day s.c. minipump; vehicle 0.32
Description: as §2

Structure (SMILES): CC(C)(C)c1cc(Br)cc([C@H](CC(=O)O)NC(=O)CNC(=O)c2cc(O)cc(NC3=NCC(O)CN3)c2)c1 (stereo partly shown) [CWHM‐12]
- effect on ligand binding by non‐RGD‐binding integrins [1]: nor does it affect ligand binding
- IC50 (integrin αvβ1; listed as CWHM−12, read-out: IC50, inhibition of αvβ1-mediated cell attachment): 0.29 ± 0.14 nM
- IC50 (integrin αvβ1; read-out: IC50, inhibition of αvβ1-mediated cell attachment): < 1 nM
- IC50 (integrin αvβ6; listed as CWHM−12): 0.31 ± 0.14 nM
- IC50 (integrin αvβ6): < 1 nM
- Masson trichrome staining, collagen deposition vs vehicle [2]: reduced collagen deposition
- reduction in percent area stained for PDGFR‐β vs vehicle [2]: 44%
- reduction in percent area stained for αSMA vs vehicle [2]: 45%
- reduction in percent area stained by Sirius red vs vehicle ([2]; day 27): 68%
- number of intact proximal tubules (LTL staining) ([2]; 27 days, vehicle 40.9 ± 1.6): 57.1 ± 1.7
- IC50 (integrin αvβ3; listed as CWHM−12): 0.47 ± 0.45 nM
- IC50 (integrin αvβ3): < 1 nM
- serum creatinine at day 27 [3]: 0.15 mg/dL
